Key:
Assay type in all cases: physicochemical
[1] = Dissolution in tetrahydrofuran (clarity of solution)
[2] = Comparison of solubility of amorphous and crystalline form in aprotic organic solvents; conditions: e.g. diisopropyl ether, methyl cyclohexane, isopropanol
Solubility in water = test: Solubility in water

Row | appearance of solution on dissolution in THF [1] | solubility of amorphous versus crystalline form [2] | Compound | solubility in water (Solubility in water)
1 | perfectly clear solution | better soluble | CC(C)c1c(C(=O)Nc2ccccc2)c(-c2ccccc2)c(-c2ccc(F)cc2)n1CC[C@@H]1C[C@H](CC(=O)OC(C)(C)C)OC(C)(C)O1 [amorphous compound of the formula I, (4R-cis)-6-[2-[3-phenyl-4-(phenylcarbamoyl)-2-(4-fluorophenyl)-5-(1-methylethyl)-pyrrol-1-yl]-ethyl]-2,2-dimethyl-[1,3]-dioxane-4-yl-acetic acid-tertiary butyl ester] | –
2 | – | – | CC(C)c1c(C(=O)Nc2ccccc2)c(-c2ccccc2)c(-c2ccc(F)cc2)n1CC[C@@H]1C[C@H](CC(=O)OC(C)(C)C)OC(C)(C)O1 [compound of the formula I, (4R-cis)-6-[2-[3-phenyl-4-(phenylcarbamoyl)-2-(4-fluorophenyl)-5-(1-methylethyl)-pyrrol-1-yl]-ethyl]-2,2-dimethyl-[1,3]-dioxane-4-yl-acetic acid-tertiary butyl ester] | very poor solubility in water or is practically insoluble in water
3 | some dimness appeared | – | CC(C)c1c(C(=O)Nc2ccccc2)c(-c2ccccc2)c(-c2ccc(F)cc2)n1CC[C@@H]1C[C@H](CC(=O)OC(C)(C)C)OC(C)(C)O1 [crystalline compound of the formula I, (4R-cis)-6-[2-[3-phenyl-4-(phenylcarbamoyl)-2-(4-fluorophenyl)-5-(1-methylethyl)-pyrrol-1-yl]-ethyl]-2,2-dimethyl-[1,3]-dioxane-4-yl-acetic acid-tertiary butyl ester] | –

From patent US7943786B2, “Process for preparing amorphous (4R-cis)-6-[2-[3-phenyl-4-(phenylcarbamoyl)-2-(4-fluorophenyl)-5-(1-methylethyl)-pyrrol-1-yl]-ethyl]-2,2-dimethyl-[1,3]-dioxane-4-yl-acetic acid” (priority 2003, dated 2011)
